Results on five molecules are retold here after patent US9568467B2, “Inhibitors of micro-RNAs for use for preventing and/or attenuating skin ageing” (CHANEL PARFUMS BEAUTE, priority 2012, dated 2017).

Common to all, as to assay type: cell-based
For one series, the system named is miR-152. The series can be described thus: Relative quantification of miR-152 level by Real Time PCR in treated or transfected fibroblasts. The conditions noted are these: primary human fibroblasts, 48 hours treatment, concentration indicated in FIG. 13 (not given); control = 1.00±0.01. On the procedure:
(§1) Neonatal Human Primary Dermal Fibroblasts (HDFn, Cascade, Invitrogen, Carlsbad, Calif., USA) were cultured in 106 medium added with LSGS growth supplements (Cascade). Cells were passaged usually once a week, at each passage the harvested cells number and seeded cell number were recorded in order to calculate the population doublings occurring between passages and the population doubling time. At each passage different aliquots of the cells were harvested to extract in triplicate RNA and proteins and an aliquot was submitted to senescence activated β-galactosidase staining in order to assay the senescent or non-senescent state of the cells. […]
(§2) Total RNA from cells was isolated using mirVana mirRNA Isolation Kit (Ambion) by following the manufacturer's protocol for total RNA extraction. Total RNA was quantified using a NanoDrop Spectophotometer (Thermo Scientific, Delaware, USA) and RNA quality was controlled on an agarose gel. […] The expression of each gene and miR was defined from the threshold cycle (Ct), and relative expression levels were calculated by using the 2-ΔΔCt method after normalization with reference to the expression of the housekeeping gene U18.

In the next series the test system is miR-134. The series can be described thus: Relative quantification of miR-134 level by Real Time PCR in treated or transfected fibroblasts. The following applies: primary human fibroblasts, 48 hours treatment, concentration indicated in FIG. 12 (not given); control = 1.00±0.01. On the procedure: as §1, §2
A further series concerns ITGA9 mRNA. Kind of series: Relative quantification of ITGA9 mRNA level by Real Time PCR after transfection. The following applies: human dermal fibroblasts, 96 hours after transfection. On the procedure: as §1, §2
Series [1] relates to primary human fibroblasts. Kind of series: Cell proliferation, BrdU pulse and flow cytometry after transfection. The conditions noted are these: 96 hours after transfection, 3 h BrdU pulse; negative control 26%. On the procedure:
(§3) Neonatal Human Primary Dermal Fibroblasts (HDFn, Cascade, Invitrogen, Carlsbad, Calif., USA) were cultured in 106 medium added with LSGS growth supplements (Cascade). Cells were passaged usually once a week, at each passage the harvested cells number and seeded cell number were recorded in order to calculate the population doublings occurring between passages and the population doubling time. At each passage different aliquots of the cells were harvested to extract in triplicate RNA and proteins and an aliquot was submitted to senescence activated β-galactosidase staining in order to assay the senescent or non-senescent state of the cells.
(§4) Human primary fibroblasts were transfected with human pre-miR 134, anti-miR-134, pre-miR-152, anti-miR-152 and scramble sequence as negative control (Ambion, Tex., USA) using the Lipofecatmine RNAimax transfection reagent (Invitrogen) according to manufacturer protocols. 24 hrs after transfection, the medium was removed and replaced with fresh medium.
Methods used to evaluate cell proliferation are generally based on incorporation of thymidine analogues such as 3H thymidine or bromodeoxyuridine (BrdU) during DNA synthesis. […] Cell cycle was analysed using a FACS Calibur flow cytometer (BD Biosciences, San Jose, Calif., USA). Fifteen thousand events were evaluated using the Cell Quest (BD) and Modfit LT (Verity Software; BD) programs.

The subject of a further series is ITGA5. The series can be described thus: Western blot of ITGA5 protein level after transfection. The conditions noted are these: human fibroblasts after transfection; β-Actin loading control. The method, then: as §3, §4
Total cell extracts were resolved on a SDS polyacrylamide gel, blotted on a Hybond P PVDF membrane (G&E Healthcare, UK). […]

A further series relates to ITGA5 mRNA. Kind of series: Relative quantification of ITGA5 mRNA level by Real Time PCR after transfection. The following applies: human dermal fibroblasts, 96 hours after transfection. On the procedure: as §1, §2

Turning to `O.Oc1cc(O)c2c(c1)O[C@H](c1ccc(O)c(O)c1)[C@@H](O)C2` [Compound 2, Catechine Hydrate], the “expression of miR-152 in treated cells (relative quantification)” value with miR-152 is 0.769±0.03.

In the case of `O=C(O[C@@H]1Cc2c(O)cc(O)cc2O[C@@H]1c1cc(O)c(O)c(O)c1)c1cc(O)c(O)c(O)c1` [Compound 4, Epigallocatechine Gallate], the “expression of miR-152 in treated cells (relative quantification)” value in the series on miR-152 is 0.804±0.05. For the same molecule, the “expression of miR-134 in treated cells (relative quantification)” value in the series with miR-134 is given as 0.603±0.03.

Regarding `C[C@@H]1O[C@@H](O[C@@H]2[C@@H](O)[C@H](OCCc3ccc(O)c(O)c3)O[C@H](CO)[C@H]2OC(=O)/C=C/c2ccc(O)c(O)c2)[C@H](O)[C@H](O)[C@H]1O` [Compound 5, Verbascoside], in the series with miR-134, the “expression of miR-134 in treated cells (relative quantification)” value is 0.734±0.05.

For the molecule “miR-134: human pre-miR 134 (Ambion) transfected into fibroblasts; mature miR-134 SEQ ID No. 1 ugugacugguugaccagagggg (UGUGACUGGUUGACCAGAGGGG; delivered as commercial pre-miR precursor, further chemistry not given here; listed as Homo sapiens)”, the “ITGA9 mRNA level reduction” value in the series on ITGA9 mRNA turned out to be 20%. Also, the “percentage of BrdU positive primary human fibroblasts” value in series [1] came to 19%.

“miR-152: human pre-miR-152 (Ambion) transfected into fibroblasts; mature miR-152 SEQ ID No. 2 UCAGUGCAUGACAGAACUUGG (delivered as commercial pre-miR precursor, further chemistry not given here; listed as Homo sapiens)”: the “ITGA9 mRNA level reduction” value in the series with ITGA9 mRNA is recorded as 40%. Further, the “ITGA5 protein level (Western blot)” value with ITGA5 is recorded as “significant decrease”. The “percentage of BrdU positive primary human fibroblasts” value in series [1] stood at 18%. For the same molecule, the “ITGA5 mRNA level reduction” value in the series with ITGA5 mRNA is 30%.
